Here are results for 18 compounds from patent publication US20230295182A1, “SPIRO DERIVATIVES OF ALPHA-D-GALACTOPYRANOSIDES” (Idorsia Pharmaceuticals Ltd, priority 2020, published 2023).

One test concerns the target human Gal-3 (hGal-3) (Homo sapiens (Human), UniProt P17931). The test can be described thus: Competitive binding assay: biotinylated hGal-3 to microplate-adsorbed asialofetuin (ASF). The conditions noted are these: Activity on hGal-3; binding to ASF-coated plates, 3 hours at 4° C.; mean values. In short, it runs like this: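 Biotinylated hGal-3 (300-1000 ng/mL) binding to plate-adsorbed asialofetuin, with DMSO-diluted compound added, incubated 3 h at 4 °C. After washing, bound protein detected with streptavidin-peroxidase (80 ng/mL, 1 h, 4 °C) and ABTS substrate, read spectrophotometrically. IC50 given as mean of several measurements.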

A further test has as its target human Gal-1 (hGal-1) (Homo sapiens, UniProt P09382). The test can be described thus: Competitive binding assay: biotinylated hGal-1 to microplate-adsorbed asialofetuin (ASF). Conditions: Activities on hGal-1; binding to ASF-coated plates, 3 hours at 4° C.; mean values; read-out: Gal-1 IC50. In short, it runs like this: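 Plate-adsorbed asialofetuin is incubated 3 h at 4 °C with biotinylated hGal-1, optionally its all-serine-substituted cysteine variant, plus compound dilutions. ABTS color after 1 h streptavidin-peroxidase (80 ng/mL) at 4 °C reports binding. Reported IC50 is a mean across repeat runs.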

human Gal-3 (hGal-3), sequence (P17931 whole entry): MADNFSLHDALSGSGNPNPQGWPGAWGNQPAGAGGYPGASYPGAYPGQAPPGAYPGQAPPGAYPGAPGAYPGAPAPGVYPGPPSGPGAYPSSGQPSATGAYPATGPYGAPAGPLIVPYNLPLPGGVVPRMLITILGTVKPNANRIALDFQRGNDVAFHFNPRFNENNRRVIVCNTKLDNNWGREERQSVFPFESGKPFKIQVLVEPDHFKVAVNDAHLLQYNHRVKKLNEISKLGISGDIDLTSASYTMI
human Gal-1 (hGal-1), sequence (P09382 2-135 limits assumed): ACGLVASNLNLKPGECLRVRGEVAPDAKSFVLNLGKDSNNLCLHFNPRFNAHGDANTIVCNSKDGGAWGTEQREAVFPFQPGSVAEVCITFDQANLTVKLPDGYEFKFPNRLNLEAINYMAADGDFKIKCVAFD

As for `CO[C@@H]1[C@@H](n2cc(-c3ccc(C)c(F)c3F)nn2)[C@@H](O)[C@@H](CO)O[C@@H]1CC1=NOC2(C1)CC1CCC(C1)C2` (stereo partly drawn) [Example 1.82, (2R,3R,4S,5R,6R)-6-((4′H-spiro[bicyclo[3.2.1]octane-3,5′-isoxazol]-3′-yl)methyl)-4-(4-(2,3-difluoro-4-methylphenyl)-1H-1,2,3-triazol-1-yl)-2-(hydroxymethyl)-5-methoxytetrahydro-2H-pyran-3-ol], the figures for the IC50 on human Gal-3 (hGal-3) and on human Gal-1 (hGal-1) were 50 nM and 1950 nM, respectively.
In the same order, the values of `CO[C@@H]1[C@@H](n2cc(-c3cc(F)c(F)c(F)c3)nn2)[C@@H](O)[C@@H](CO)O[C@@H]1CC1=NOC2(CCC(O)CC2)C1` (stereo partly drawn) [Example 2.01, 3-(((2R,3R,4S,5R,6R)-5-hydroxy-6-(hydroxymethyl)-3-methoxy-4-(4-(3,4,5-trifluorophenyl)-1H-1,2,3-triazol-1-yl)tetrahydro-2H-pyran-2-yl)methyl)-1-oxa-2-azaspiro[4.5]dec-2-en-8-ol] are 250 nM and 2200 nM.
In the same order, the values of `CO[C@@H]1[C@@H](n2cc(-c3cc(F)c(F)c(F)c3)nn2)[C@@H](O)[C@@H](CO)O[C@@H]1CC1=NO[C@]2(CC[C@@H](O)CC2)C1` [Example 2.02, (5s,8S)-3-(((2R,3R,4S,5R,6R)-5-hydroxy-6-(hydroxymethyl)-3-methoxy-4-(4-(3,4,5-trifluorophenyl)-1H-1,2,3-triazol-1-yl)tetrahydro-2H-pyran-2-yl)methyl)-1-oxa-2-azaspiro[4.5]dec-2-en-8-ol] are 700 nM and 5100 nM.
In the same order, the values of `CO[C@@H]1[C@@H](n2cc(-c3cc(F)c(F)c(F)c3)nn2)[C@@H](O)[C@@H](CO)O[C@@H]1CC1=NO[C@]2(CC[C@H](O)CC2)C1` [Example 2.03, (5r,8R)-3-(((2R,3R,4S,5R,6R)-5-hydroxy-6-(hydroxymethyl)-3-methoxy-4-(4-(3,4,5-trifluorophenyl)-1H-1,2,3-triazol-1-yl)tetrahydro-2H-pyran-2-yl)methyl)-1-oxa-2-azaspiro[4.5]dec-2-en-8-ol] are 190 nM and 2000 nM.
In the case of `CO[C@@H]1[C@@H](n2cc(-c3cc(F)c(F)c(F)c3)nn2)[C@@H](O)[C@@H](CO)O[C@@H]1CC1=NO[C@]2(CC[C@H](NC(C)=O)CC2)C1` [Example 2.04, N-((5r,8R)-3-(((2R,3R,4S,5R,6R)-5-hydroxy-6-(hydroxymethyl)-3-methoxy-4-(4-(3,4,5-trifluorophenyl)-1H-1,2,3-triazol-1-yl)tetrahydro-2H-pyran-2-yl)methyl)-1-oxa-2-azaspiro[4.5]dec-2-en-8-yl)acetamide], the IC50 was 61 nM on human Gal-3 (hGal-3) and 810 nM at human Gal-1 (hGal-1).
The corresponding values for `CO[C@@H]1[C@@H](n2cc(-c3cc(F)c(F)c(F)c3)nn2)[C@@H](O)[C@@H](CO)O[C@@H]1CC1=NO[C@]2(CC[C@@H](NC(C)=O)CC2)C1` [Example 2.05, N-((5s,8S)-3-(((2R,3R,4S,5R,6R)-5-hydroxy-6-(hydroxymethyl)-3-methoxy-4-(4-(3,4,5-trifluorophenyl)-1H-1,2,3-triazol-1-yl)tetrahydro-2H-pyran-2-yl)methyl)-1-oxa-2-azaspiro[4.5]dec-2-en-8-yl)acetamide] are 450 nM and 3600 nM.
The corresponding values for `CO[C@@H]1[C@@H](n2cc(-c3ccc(C)c(F)c3F)nn2)[C@@H](O)[C@@H](CO)O[C@@H]1CC1=NO[C@]2(CC[C@H](NC(C)=O)CC2)C1` [Example 2.06] are 71 nM and 340 nM.
In the same order, the values of `CO[C@@H]1[C@@H](n2cc(-c3ccc(Cl)c(F)c3F)nn2)[C@@H](O)[C@@H](CO)O[C@@H]1CC1=NO[C@]2(CC[C@H](NC(C)=O)CC2)C1` [Example 2.07, N-((5r,8R)-3-(((2R,3R,4S,5R,6R)-4-(4-(4-chloro-2,3-difluorophenyl)-1H-1,2,3-triazol-1-yl)-5-hydroxy-6-(hydroxymethyl)-3-methoxytetrahydro-2H-pyran-2-yl)methyl)-1-oxa-2-azaspiro[4.5]dec-2-en-8-yl)acetamide] are 62 nM and 910 nM.
With `CO[C@@H]1[C@@H](n2cc(-c3ccc(F)c(F)c3F)nn2)[C@@H](O)[C@@H](CO)O[C@@H]1CC1=NO[C@]2(CC[C@H](NC(C)=O)CC2)C1` [Example 2.08, N-((5r,8R)-3-(((2R,3R,4S,5R,6R)-5-hydroxy-6-(hydroxymethyl)-3-methoxy-4-(4-(2,3,4-trifluorophenyl)-1H-1,2,3-triazol-1-yl)tetrahydro-2H-pyran-2-yl)methyl)-1-oxa-2-azaspiro[4.5]dec-2-en-8-yl)acetamide], the figures for the concentration for half-maximal inhibition (IC50) at human Gal-3 (hGal-3) and on human Gal-1 (hGal-1) were 52 nM and 310 nM, respectively.
In the same order, the values of `CCOC(=O)N[C@H]1CC[C@]2(CC1)CC(C[C@H]1O[C@H](CO)[C@H](O)[C@H](n3cc(-c4ccc(C)c(F)c4F)nn3)[C@H]1OC)=NO2` [Example 2.09, ethyl ((5r,8R)-3-(((2R,3R,4S,5R,6R)-4-(4-(2,3-difluoro-4-methylphenyl)-1H-1,2,3-triazol-1-yl)-5-hydroxy-6-(hydroxymethyl)-3-methoxytetrahydro-2H-pyran-2-yl)methyl)-1-oxa-2-azaspiro[4.5]dec-2-en-8-yl)carbamate] are 17 nM and 640 nM.
In the same order, the values of `CCOC(=O)N[C@H]1CC[C@]2(CC1)CC(C[C@H]1O[C@H](CO)[C@H](O)[C@H](n3cc(-c4ccc(F)c(F)c4F)nn3)[C@H]1OC)=NO2` [Example 2.10, ethyl ((5r,8R)-3-(((2R,3R,4S,5R,6R)-5-hydroxy-6-(hydroxymethyl)-3-methoxy-4-(4-(2,3,4-trifluorophenyl)-1H-1,2,3-triazol-1-yl)tetrahydro-2H-pyran-2-yl)methyl)-1-oxa-2-azaspiro[4.5]dec-2-en-8-yl)carbamate] are 20 nM and 320 nM.
In the same order, the values of `CCOC(=O)N[C@H]1CC[C@]2(CC1)CC(C[C@H]1O[C@H](CO)[C@H](O)[C@H](n3cc(-c4ccc(Cl)c(F)c4F)nn3)[C@H]1OC)=NO2` [Example 2.11, ethyl ((5r,8R)-3-(((2R,3R,4S,5R,6R)-4-(4-(4-chloro-2,3-difluorophenyl)-1H-1,2,3-triazol-1-yl)-5-hydroxy-6-(hydroxymethyl)-3-methoxytetrahydro-2H-pyran-2-yl)methyl)-1-oxa-2-azaspiro[4.5]dec-2-en-8-yl)carbamate] are 19 nM and 340 nM.
Consider `CO[C@@H]1[C@@H](n2cc(-c3cc(F)c(F)c(F)c3)nn2)[C@@H](O)[C@@H](CO)O[C@@H]1CC1=NO[C@]2(CC[C@H](NC(C)C)CC2)C1` [Example 2.12, (2R,3R,4S,5R,6R)-2-(hydroxymethyl)-6-(((5r,8R)-8-(isopropylamino)-1-oxa-2-azaspiro[4.5]dec-2-en-3-yl)methyl)-5-methoxy-4-(4-(3,4,5-trifluorophenyl)-1H-1,2,3-triazol-1-yl)tetrahydro-2H-pyran-3-ol], for which the IC50 at human Gal-3 (hGal-3) came out at 220 nM; on human Gal-1 (hGal-1) it was 2400 nM.
For the compound `CO[C@@H]1[C@@H](n2cc(-c3cc(F)c(F)c(F)c3)nn2)[C@@H](O)[C@@H](CO)O[C@@H]1CC1=NO[C@]2(CC[C@@H](NC(C)C)CC2)C1` [Example 2.13, (2R,3R,4S,5R,6R)-2-(hydroxymethyl)-6-(((5s,8S)-8-(isopropylamino)-1-oxa-2-azaspiro[4.5]dec-2-en-3-yl)methyl)-5-methoxy-4-(4-(3,4,5-trifluorophenyl)-1H-1,2,3-triazol-1-yl)tetrahydro-2H-pyran-3-ol], the IC50 was 550 nM at human Gal-3 (hGal-3) and 7000 nM on human Gal-1 (hGal-1).
In the same order, the values of `CCC(CC)NC1CCC2(CC1)CC(C[C@H]1O[C@H](CO)[C@H](O)[C@H](n3cc(-c4cc(F)c(F)c(F)c4)nn3)[C@H]1OC)=NO2` (stereo partly drawn) [Example 2.14, (2R,3R,4S,5R,6R)-2-(hydroxymethyl)-5-methoxy-6-((8-(pentan-3-ylamino)-1-oxa-2-azaspiro[4.5]dec-2-en-3-yl)methyl)-4-(4-(3,4,5-trifluorophenyl)-1H-1,2,3-triazol-1-yl)tetrahydro-2H-pyran-3-ol] are 390 nM and 2600 nM.
In the same order, the values of `CO[C@@H]1[C@@H](n2cc(-c3cc(F)c(F)c(F)c3)nn2)[C@@H](O)[C@@H](CO)O[C@@H]1CC1=NOC2(CCC(NCC(F)F)CC2)C1` (stereo partly drawn) [Example 2.15, (2R,3R,4S,5R,6R)-6-((8-((2,2-difluoroethyl)amino)-1-oxa-2-azaspiro[4.5]dec-2-en-3-yl)methyl)-2-(hydroxymethyl)-5-methoxy-4-(4-(3,4,5-trifluorophenyl)-1H-1,2,3-triazol-1-yl)tetrahydro-2H-pyran-3-ol] are 280 nM and 7200 nM.
As to `CO[C@@H]1[C@@H](n2cc(-c3cc(F)c(F)c(F)c3)nn2)[C@@H](O)[C@@H](CO)O[C@@H]1CC1=NOC2(CCC(NC3CC3)CC2)C1` (stereo partly drawn) [Example 2.16, (2R,3R,4S,5R,6R)-6-((8-(cyclopropylamino)-1-oxa-2-azaspiro[4.5]dec-2-en-3-yl)methyl)-2-(hydroxymethyl)-5-methoxy-4-(4-(3,4,5-trifluorophenyl)-1H-1,2,3-triazol-1-yl)tetrahydro-2H-pyran-3-ol], the values for the concentration for half-maximal inhibition (IC50) on human Gal-3 (hGal-3) and at human Gal-1 (hGal-1) were 240 nM and 2400 nM, respectively.
The corresponding values for `CO[C@@H]1[C@@H](n2cc(-c3cc(F)c(F)c(F)c3)nn2)[C@@H](O)[C@@H](CO)O[C@@H]1CC1=NOC2(CCC(NCC(F)(F)F)CC2)C1` (stereo partly drawn) [Example 2.17, (2R,3R,4S,5R,6R)-2-(hydroxymethyl)-5-methoxy-6-((8-((2,2,2-trifluoroethyl)amino)-1-oxa-2-azaspiro[4.5]dec-2-en-3-yl)methyl)-4-(4-(3,4,5-trifluorophenyl)-1H-1,2,3-triazol-1-yl)tetrahydro-2H-pyran-3-ol] are 210 nM and 1400 nM.
